SMILES strings stand for the structures. Structures can show the parent of a compound that is named as a salt.

One assay addresses T1, gastrin receptor (Rattus norvegicus, UniProt P30553).
T1 construct: The stomach was excised and flushed with ca. 1 ml of unbuffered physiological saline solution; from tissue; host or cells: isolated whole stomach of immature rats (ca. 21 days old)
T1 sequence (P30553 1-452): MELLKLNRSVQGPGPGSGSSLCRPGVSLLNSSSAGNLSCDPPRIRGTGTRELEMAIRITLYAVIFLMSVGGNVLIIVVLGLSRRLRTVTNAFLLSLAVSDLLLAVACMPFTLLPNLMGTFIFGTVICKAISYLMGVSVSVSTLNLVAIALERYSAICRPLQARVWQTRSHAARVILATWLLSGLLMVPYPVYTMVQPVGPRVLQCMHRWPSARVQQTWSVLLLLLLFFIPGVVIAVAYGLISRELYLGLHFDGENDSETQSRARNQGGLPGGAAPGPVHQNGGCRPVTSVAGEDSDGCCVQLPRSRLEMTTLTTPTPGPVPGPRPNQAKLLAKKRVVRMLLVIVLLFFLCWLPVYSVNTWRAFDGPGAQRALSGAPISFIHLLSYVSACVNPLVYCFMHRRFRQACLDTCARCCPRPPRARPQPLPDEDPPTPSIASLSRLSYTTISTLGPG
Briefly: gastrin antagonist activity in immature rat stomach assay (pentagastrin dose-response, acid secretion). The following applies: isolated immature rat stomach, cumulative pentagastrin dose-response curves. The protocol: The compounds of the examples were also tested for gastrin antagonist activity in an immature rat stomach assay. The procedure was as follows:
The oesophagus of immature rats (33-50 g, ca. 21 days old) was ligated at the level of the cardiac sphincter and the duodenal sphincter was cannulated. The stomach was excised and flushed with ca. 1 ml of unbuffered physiological saline solution. The fundus was punctured and cannulated. A further 4-5 ml of unbuffered solution was flushed through the stomach to ensure the preparation was not leaking. The stomach was lowered into a jacketed organ bath containing 40 ml of buffered solution containing 3×10^−8 M 5-methylfurmethide, maintained at 37° and gassed vigorously with 95% O2/5% CO2. The stomach was continuously perfused at a rate of 1 ml min^−1 with unbuffered solution gassed with 100% O2 with the perfusate passing over an internally referenced pH-electrode fixed 12 cm above the stomach.
After 120 min of stabilisation the drugs were added directly to the serosal solution in the organ bath and after a further 60 min cumulative pentagastrin dose-response curves were started. Changes in acid secretion were monitored and the curves analysed according to Black et al., Br. J. Pharmacol., 1985, 86, 581.
`Cc1ccc(NC(=O)c2nc([C@@H]3CC4C=C[C@H]3C4)[nH]c2COC23CC4CC(CC(C4)C2)C3)cc1C(=O)O` [Example 290, endo-5-{[5-(Adamantan-1-yloxymethyl)-2-((1R,2R)-bicyclo[2.2.1]hept-5-en-2-yl)-1H-imidazole-4-carbonyl]-amino}-2-methyl-benzoic Acid]: the “Gastrin pKb” value was found to be 8.55.

Staying with this assay, now noted: isolated immature rat stomach, cumulative pentagastrin dose-response curves, read-out: Gastrin pKb (converted).
In the case of `O=C(O)c1cccc(NC(=O)c2[nH]c(C34CCC(CC3)CC4)nc2CCC23CC4CC(CC(C4)C2)C3)c1` [Example 212, 3-{[5-(2-Adamantan-1-yl-ethyl)-2-bicyclo[2.2.2]oct-1-yl-1H-imidazole-4-carbonyl]-amino}-benzoic Acid], the Kb was 2.45 nM.

In the case of `O=C(Cc1cccc(NC(=O)c2nc(C3CCCCC3)[nH]c2COC23CC4CC(CC(C4)C2)C3)c1)NO` [Example 287, 5-(Adamantan-1-yloxymethyl)-2-cyclohexyl-1H-imidazole-4-carboxylic Acid (3-hydroxycarbamoylmethyl-phenyl)-amide], the Kb is 91.2 nM.

Turning to `Cc1ccccc1-c1nc(CCC23CC4CC(CC(C4)C2)C3)c(CCc2cccc(C(=O)O)c2)n1C` [Example 277, 3-{2-[5-(2-Adamantan-1-yl-ethyl)-3-methyl-2-o-tolyl-3H-imidazol-4-yl]-ethyl}-benzoic Acid], the Kb was 1000 nM.

As for `Cc1ccc(NC(=O)c2nc(C3CCCCC3)[nH]c2CCC23CCC(CC2)CC3)cc1C(=O)O` [Example 176, 5-{[5-(2-Bicyclo[2.2.2]oct-1-yl-ethyl)-2-cyclohexyl-1H-imidazole-4-carbonyl]-amino}-2-methyl-benzoic Acid], the Kb was 6.61 nM.

With `CCCCCC12CCC(c3nc(C(=O)Nc4cccc(C(=O)O)c4)c(COC45CC6CC(CC(C6)C4)C5)[nH]3)(CC1)CC2` [Example 302, 3-{[5-(Adamantan-1-yloxymethyl)-2-(4-pentyl-bicyclo[2.2.2]oct-1-yl)-1H-imidazole-4-carbonyl]-amino}-benzoic Acid], the Kb was 589 nM.

Take `O=C(O)c1cccc(NC(=O)c2nc(C3C4CC5CC(C4)CC3C5)[nH]c2CCC23CC4CC(CC(C4)C2)C3)c1` (stereo not drawn) [Example 207, 3-{[2-Adamantan-2-yl-5-(2-adamantan-1-yl-ethyl)-1H-imidazole-4-carbonyl]-amino}benzoic Acid]: the Kb was 69.2 nM.

As to `Cc1ccccc1-c1nc(C(=O)Nc2cccc(C(=O)O)c2)c(COC23CC4CC(CC(C4)C2)C3)[nH]1` [Example 304, 3-{[5-(Adamantan-1-yloxymethyl)-2-o-tolyl-1H-imidazole-4-carbonyl]-amino}-benzoic Acid], the Kb was 24 nM.

With `Cc1c(NC(=O)c2nc(C3CCCCC3)[nH]c2COC23CC4CC(CC(C4)C2)C3)cccc1C(=O)O` [Example 218, 3-{[5-(Adamantan-1-yloxymethyl)-2-cyclohexyl-1H-imidazole-4-carbonyl]-amino}-2-methyl-benzoic Acid], the Kb was 148 nM.

On to `O=C(O)c1cccc(NC(=O)c2c(COC34CC5CC(CC(C5)C3)C4)nc(-c3c(Cl)cccc3Cl)n2O)c1` [Example 313, 3-{[5-(Adamantan-1-yloxymethyl)-2-(2,6-dichloro-phenyl)-3-hydroxy-3H-imidazole-4-carbonyl]-amino}-benzoic Acid], for which the Kb is 18.6 nM.

For the compound `O=C(O)C=Cc1cc(NC(=O)c2nc(C3CCCCC3)[nH]c2CCC23CC4CC(CC(C4)C2)C3)ccc1Cl` [Example 269, 3-(5-{[5-(2-Adamantan-1-yl-ethyl)-2-cyclohexyl-1H-imidazole-4-carbonyl]-amino}-2-chloro-phenyl)-acrylic Acid], the Kb is 933 nM.

In the case of `CC(=O)NC(C(=O)O)c1cccc(NC(=O)c2nc(C3CCCCC3)[nH]c2CCC23CC4CC(CC(C4)C2)C3)c1` (racemic) [Example 264, (±)-Acetylamino-(3-{[5-(2-adamantan-1-yl-ethyl)-2-cyclohexyl-1H-imidazole-4-carbonyl]-amino}-phenyl)-acetic Acid], the Kb is 871 nM.

On to `O=C(O)c1cc(NC(=O)c2nc(C34CCC(CC3)CC4)[nH]c2COC23CC4CC(CC(C4)C2)C3)ccc1F` [Example 223, 5-{[5-(Adamantan-1-yloxymethyl)-2-bicyclo[2.2.2]oct-1-yl-1H-imidazole-4-carbonyl]-amino}-2-fluoro-benzoic Acid], for which the Kb is 0.776 nM.

Regarding `O=C(O)c1cccc(NC(=O)c2nc(C3C4C=CC3C=C4)[nH]c2COC23CC4CC(CC(C4)C2)C3)c1` (stereo not drawn) [Example 288, 3-{[5-(Adamantan-1-yloxymethyl)-2-bicyclo[2.2.1]hepta-2,5-dien-7-yl-1H-imidazole-4-carbonyl]-amino}-benzoic Acid], the Kb is 13.2 nM.

`O=C(Nc1cccc(S(=O)(=O)O)c1)c1nc(C2CCCCC2)[nH]c1CCC12CC3CC(CC(C3)C1)C2` [Example 268, 3-{[5-(2-Adamantan-1-yl-ethyl)-2-cyclohexyl-1H-imidazole-4-carbonyl]-amino}-benzenesulfonic Acid]: the Kb was 224 nM.

On to `Cc1ccc(NC(=O)c2nc(C3CCCCC3)[nH]c2COCC23CC4CC(CC(C4)C2)C3)cc1C(=O)O` [Example 310, 5-{[5-(Adamantan-1-ylmethoxymethyl)-2-cyclohexyl-1H-imidazole-4-carbonyl]-amino}-2-methyl-benzoic Acid], for which the Kb is 115 nM.

Consider `Cc1ccccc1-c1nc(C(=O)Oc2cccc(C(=O)O)c2)c(CCC23CC4CC(CC(C4)C2)C3)[nH]1` [Example 281, 5-(2-Adamantan-1-yl-ethyl)-2-o-tolyl-1H-imidazole-4-carboxylic Acid 3-carboxy-phenyl Ester], for which the Kb was 2090 nM.

For `O=C(O)CCc1cc(NC(=O)c2nc(C3CCCCC3)[nH]c2CCC23CC4CC(CC(C4)C2)C3)ccc1Cl` [Example 271, 3-(5-{[5-(2-Adamantan-1-yl-ethyl)-2-cyclohexyl-1H-imidazole-4-carbonyl]-amino)-2-chloro-phenyl)-propionic Acid], the Kb was 355 nM.

`O=C(O)c1cccc(NC(=O)c2nc(-c3c(Cl)cccc3Cl)[nH]c2COC23CC4CC(CC(C4)C2)C3)c1` [Example 311, 3-{[5-(Adamantan-1-yloxymethyl)-2-(2,6-dichloro-phenyl)-1H-imidazole-4-carbonyl]-amino}-benzoic Acid]: the Kb was 8.71 nM.

For `O=C(O)c1cccc(NC(=O)c2nc(C34C=CC(CC3)CC4)[nH]c2COC23CC4CC(CC(C4)C2)C3)c1` [Example 225, 3-{[5-(Adamantan-1-yloxymethyl)-2-bicyclo[2.2.2]oct-2-en-1-yl-1H-imidazole-4-carbonyl]-amino}-benzoic Acid], the Kb is 0.661 nM.

Consider `COc1cc(OC)c(-c2nc(C(=O)Nc3cccc(C(=O)O)c3)c(CCC34CC5CC(CC(C5)C3)C4)[nH]2)c(OC)c1` [Example 160, 3-{[5-(2-Adamantan-1-yl-ethyl)-2-(2,4,6-trimethoxy-phenyl)-1H-imidazole-4-carbonyl]-amino}-benzoic Acid], for which the Kb is 912 nM.

Take `Cc1cc(C)c(-c2nc(C(=O)Nc3cccc(CC(=O)O)c3)c(COC34CC5CC(CC(C5)C3)C4)[nH]2)c(C)c1` [Example 227, (3-{[5-(Adamantan-1-yloxymethyl)-2-(2,4,6-trimethyl-phenyl)-1H-imidazole-4-carbonyl]-amino}-phenyl)-acetic Acid]: the Kb was 52.5 nM.

Regarding `O=C(O)CCc1cccc(NC(=O)c2nc(C3CCCCC3)[nH]c2CCC23CC4CC(CC(C4)C2)C3)c1` [Example 258, 3-(3-{[5-(2-Adamantan-1-yl-ethyl)-2-cyclohexyl-1H-imidazole-4-carbonyl]-amino}-phenyl)-propionic Acid Trifluoroacetic Acid Salt], the Kb was 204 nM.

`O=C(O)c1cccc(NC(=O)c2c(COC34CC5CC(CC(C5)C3)C4)nc(C3CCCCC3)n2O)c1` [Example 308, 3-{[5-(Adamantan-1-yloxymethyl)-2-cyclohexyl-3-hydroxy-3H-imidazole-4-carbonyl]-amino}-benzoic Acid]: the Kb is 18.6 nM.

In the case of `Cc1ccccc1-c1nc(CCc2cccc(C(=O)O)c2)c(CCC23CC4CC(CC(C4)C2)C3)[nH]1` [Example 280, 3-{2-[5-(2-Adamantan-1-yl-ethyl)-2-o-tolyl-1H-imidazol-4-yl]-ethyl}-benzoic Acid], the Kb is 1820 nM.

Consider `Cc1c(NC(=O)c2nc(C34CCC(CC3)CC4)[nH]c2COC23CC4CC(CC(C4)C2)C3)cccc1C(=O)O` [Example 222, 3-{[5-(Adamantan-1-yloxymethyl)-2-bicyclo[2.2.2]oct-1-yl-1H-imidazole-4-carbonyl]-amino}-2-methyl-benzoic Acid], for which the Kb is 20.4 nM.

Turning to `Cc1ccc(NC(=O)c2nc(C3CCCCCC3)[nH]c2COC23CC4CC(CC(C4)C2)C3)cc1C(=O)O` [Example 296, 5-{[5-(Adamantan-1-yloxymethyl)-2-cycloheptyl-1H-imidazole-4-carbonyl]-amino}-2-methyl-benzoic Acid], the Kb is 2.09 nM.

Source of the values: patent US6479531B1, “Gastrin and cholecystokinin receptor ligands” (James Black Foundation Limited, priority 1998, dated 2002).
